# Where two headings read alike, the source gives them in different places.
# Legend:
# liver = conditions: cited from earlier work
# [1] = system: uterus (ovariectomised rats); experiment: Uterus weight after oral treatment of ovariectomised rats (oral estrogen effects, sexual function); assay type: in vivo; conditions: ovariectomised rat, 10 μg/animal/d p.o., d1 to d7
# Text: The adult female experimental animals (breeder: HSD/WIN:WU) were ovariectomised (Day […]). Treatment with one daily oral application of test substances was started two weeks after ovariectomy. All animals were assigned to groups by randomised approach. The experiment was a block design. All animals were weighed twice, prior to and at the end of the experiment. Start and end of treatment were defined as Day 1 (=d1) or Day 7 (=d7). The animals were sacrificed on Day 8. Several organs (uterus, adrenal glands, liver) were removed and weighed and were passed on in deep-frozen condition (-196° C.) for further investigation.
# [2] = Blood level after oral application to ovariectomised rats; assay type: in vivo; conditions: ovariectomised rat, 10 μg/animal/d p.o., d1 to d7
# Experimental: Evidence was provided to hepatic estrogenicity in ovariectomised rats: The adult female experimental animals (breeder: HSD/WIN:WU) were ovariectomised (Day […]). Treatment with one daily oral application of test substances was started two weeks after ovariectomy.
# Start and end of treatment were defined as Day 1 (=d1) or Day 7 (=d7). The animals were sacrificed on Day 8. Several organs (uterus, adrenal glands, liver) were removed and weighed and were passed on in deep-frozen condition (-196° C.) for further investigation.
# Blood was taken from the retrobulbar plexus prior to treatment (d0) as well as on (d4) and (d8), with the animals etherized. The serum thus obtained was used to determine IGF1, angiotensin I, cholesterol and HDL cholesterol.
# [3] = cited from earlier work
# [4] = cited from earlier work; remark: listed apart in the source
# angiotensin = conditions: EE 30 μg to 20 μg with 150 μg gestagen (desogestrel), cited from earlier work
# [5] = 0-24 hours from application, Goldzieher
smiles,measurement,setting,value
CC/C(=C(/CC)c1ccc(O)cc1)c1ccc(O)cc1 [DES],"Hepatic estrogenicity, in words","liver; oral, compared with conjugated and natural estrogens",Even stronger hepatic estrogenicity
"C[C@]12CC[C@@H]3c4ccc(O)cc4CC[C@H]3[C@@H]1CC[C@@H]2O [Estradiol (E2), estradiol]",Uterus weight,[1],182 mg
same,Blood level,[2],0.0192 ng/mL (serum)
same,Bioavailability after oral application,"[3]; in vivo, po",tends to be minimised
"C[C@]12CC[C@@H]3c4ccc(O)cc4CC[C@H]3[C@@H]1C[C@@H](O)[C@@H]2O [Estriol (E3), estriol]",Bioavailability after oral application,[3]; in words,tends to be minimised
"C#C[C@]1(O)CC[C@H]2[C@@H]3CCc4cc(O)ccc4[C@H]3CC[C@@]21C [Ethinyl estradiol (EE), ethinyl estradiol]",Uterus weight,[1],353 mg
same,Blood level,[2],0.0289 ng/mL (serum)
same,highest AUC recorded,[4]; [5],2.121 ng·h/mL
same,lowest AUC,[4]; [5],0.284 ng·h/mL
same,Oral bioavailability compared with natural estrogens,"[4]; human, oral, in words",much better in bioavailability
same,Effect of dose reduction on increased angiotensin levels,angiotensin; six months,marginally reduced values
same,Effect of dose reduction on increased angiotensin levels,angiotensin; three months,did not result in reduction
same,"Hepatic estrogenicity, in words","liver; in vivo, po",Even stronger hepatic estrogenicity
same,Estrogenic effectiveness in the liver relative to orally administered natural estrogens,liver; in vivo,eight to ten times as high
"CN(C)S(=O)(=O)Oc1ccc2c(c1)CC[C@@H]1[C@@H]2CC[C@]2(C)[C@@H](O)C[C@@H]3C[C@]312 [J 982, 17β-hydroxy-14α,15α-methylene-estra-1,3,5(10)-trien-3-yl N,N-dimethylsulfamate]",Uterus weight,[1],193 mg
"CCN(CC)S(=O)(=O)Oc1ccc2c(c1)CC[C@@H]1[C@@H]2CC[C@]2(C)[C@@H](O)C[C@@H]3C[C@]312 [J 983, 17β-hydroxy-14α,15α-methylene-estra-1,3,5(10)-trien-3-yl N,N-diethylsulfamate]",Uterus weight,[1],349 mg
"CCN(CC)S(=O)(=O)Oc1ccc2c(c1)CC[C@@H]1[C@@H]2CC[C@]2(C)[C@@H](O)[C@H](O)C[C@@H]12 [J 984, 16α,17β-dihydroxy-estra-1,3,5(10)-trien-3-yl N,N-diethylsulfamate]",Uterus weight,[1],246 mg
"CN(C)S(=O)(=O)Oc1ccc2c(c1)CC[C@@H]1[C@@H]2CC[C@]2(C)[C@@H](O)[C@H](O)C[C@@H]12 [J 989, 16α,17β-dihydroxy-estra-1,3,5(10)-trien-3-yl N,N-dimethylsulfamate]",Uterus weight,[1],183 mg
C[C@]12CC[C@@H]3c4ccc(OS(=O)(=O)O)cc4CC[C@H]3[C@@H]1CCC2=O [estrone sulphate],Bioavailability after oral application,[3]; in words,tends to be minimised
C[C@]12CC[C@@H]3c4ccc(O)cc4CC[C@H]3[C@@H]1CCC2=O [estrone],Bioavailability after oral application,"[3]; in vivo, po",tends to be minimised

# Reference: US6080735A, “Estra-1,3,5(10)-trien derivatives, processes for their preparation and pharmaceutical compositions containing these compounds” (priority 1994, dated 2000)
